This is an account of results in PMC5454865 (International Journal of Molecular Sciences, 2017).

Where “and” joins values, the source holds several entries; their conditions need not be identical. Equal entries are not always repeated. Where two headings read alike, the source gives them in different places.

For data set [1], the target named is T1, CYP3A4 (Homo sapiens, UniProt P08684). To be noted: human liver microsomes; cited from earlier work.
The target in data set [2] is T2, CYP2C9 (Homo sapiens, UniProt P11712). The arrangement: incubated with human liver microsomes (0.1 mg/mL); tissue Corning Life Sciences 452161; host or cells: pooled human liver microsomes. To be noted: cited from earlier work.
T2 sequence (P11712 whole entry): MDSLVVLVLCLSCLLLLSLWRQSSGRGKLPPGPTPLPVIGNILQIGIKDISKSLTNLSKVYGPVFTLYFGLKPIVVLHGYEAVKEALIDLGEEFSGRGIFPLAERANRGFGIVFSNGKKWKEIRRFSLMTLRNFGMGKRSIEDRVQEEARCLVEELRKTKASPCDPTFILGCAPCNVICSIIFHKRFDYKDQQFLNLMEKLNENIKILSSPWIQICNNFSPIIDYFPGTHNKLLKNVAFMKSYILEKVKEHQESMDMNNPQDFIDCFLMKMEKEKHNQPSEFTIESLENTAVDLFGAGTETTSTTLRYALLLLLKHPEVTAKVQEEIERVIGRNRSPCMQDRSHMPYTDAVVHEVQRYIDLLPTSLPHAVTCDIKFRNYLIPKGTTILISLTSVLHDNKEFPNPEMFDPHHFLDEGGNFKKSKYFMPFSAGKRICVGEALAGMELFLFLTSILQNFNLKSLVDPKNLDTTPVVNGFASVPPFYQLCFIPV
In data set [3] the target is T3, CYP1A2 (Homo sapiens, UniProt P05177).
T3 sequence (P05177 1-516): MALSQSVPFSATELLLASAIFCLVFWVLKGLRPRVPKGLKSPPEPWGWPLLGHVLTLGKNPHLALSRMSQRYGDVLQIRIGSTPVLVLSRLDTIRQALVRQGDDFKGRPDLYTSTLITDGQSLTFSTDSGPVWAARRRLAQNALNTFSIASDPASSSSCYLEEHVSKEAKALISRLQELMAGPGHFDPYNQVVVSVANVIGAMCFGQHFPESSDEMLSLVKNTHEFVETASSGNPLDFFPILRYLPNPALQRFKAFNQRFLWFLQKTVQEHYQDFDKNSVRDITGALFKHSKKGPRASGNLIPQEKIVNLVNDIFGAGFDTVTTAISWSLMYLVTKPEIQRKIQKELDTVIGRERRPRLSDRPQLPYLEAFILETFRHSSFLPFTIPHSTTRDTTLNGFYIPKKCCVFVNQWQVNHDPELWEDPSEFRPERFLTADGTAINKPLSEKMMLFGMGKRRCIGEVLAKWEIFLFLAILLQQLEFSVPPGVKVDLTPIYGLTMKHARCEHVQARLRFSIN
To be noted: microsomes.
Description: (§1) After 3 min pre-incubation at 37 °C, the reaction mixtures were incubated for 15 min at 37 °C with the addition of NADPH in a shaking water bath. The reaction was stopped by adding 100 μL of ice-cold methanol containing internal standards (d9-1′-hydroxybufuralol for 1′-hydroxybufuralol, 4′-hydroxydiclofenac, 7-hydroxycoumarin, 1′-hydroxymidazolam, and 4′-hydroxymephenytoin; ^13C2, ^15N-acetaminophen for acetaminophen and N-desethylamodiaquine). The mixtures were centrifuged at 13,000× g for 4 min at 4 °C. All assays were performed in triplicate and the average values were used for the subsequent calculations. […] Then, the reaction mixtures were incubated with addition of the seven-CYP probe substrate cocktail for 15 min at 37 °C. The control reaction was performed by adding acetonitrile instead of the test compounds.
(§2) Seven metabolites were simultaneously determined using a tandem mass spectrometer (TSQ Quantum Access; Thermo Scientific, San Jose, CA, USA) equipped with an electrospray ionization (ESI) source coupled to a NANOSPACE SI-2 LC system (Shiseido, Tokyo, Japan). The column and autosampler temperatures were 50 and 6 °C, respectively. The ESI source settings for the ionization of metabolites were as follows: polarity, positive ion mode; capillary voltage, 4200 V; capillary temperature, 330 °C; vaporizer temperature, 350 °C; auxiliary gas pressure, 15 psi; and sheath gas pressure, 35 psi. […] Analytical data were processed using Xcalibur™ software (Thermo Scientific, San Jose, CA, USA).
(§3) The IC50 values were calculated using SigmaPlot ver. 11.0 (Systat Software, Inc., San Jose, CA, USA).

Data set [4] has as its target T4, CYP2D6 (Homo sapiens, UniProt P10635). To be noted: microsomes.
Description: as §1, §2
(§4) The IC50 values were calculated using SigmaPlot ver. 11.0 (Systat Software, Inc., San Jose, CA, USA). Ki, kinact, and the inhibition mode were determined using Enzyme Kinetics ver. 1.1 (Systat Software, Inc.).
In data set [5] the target is T5, CYP2B6 (Homo sapiens, UniProt P20813).
T5 construct: pooled human liver microsomes (0.2 mg/mL), 50 μM bupropion; tissue Corning Life Sciences 452161; host or cells: pooled human liver microsomes
T5 sequence (P20813 1-491): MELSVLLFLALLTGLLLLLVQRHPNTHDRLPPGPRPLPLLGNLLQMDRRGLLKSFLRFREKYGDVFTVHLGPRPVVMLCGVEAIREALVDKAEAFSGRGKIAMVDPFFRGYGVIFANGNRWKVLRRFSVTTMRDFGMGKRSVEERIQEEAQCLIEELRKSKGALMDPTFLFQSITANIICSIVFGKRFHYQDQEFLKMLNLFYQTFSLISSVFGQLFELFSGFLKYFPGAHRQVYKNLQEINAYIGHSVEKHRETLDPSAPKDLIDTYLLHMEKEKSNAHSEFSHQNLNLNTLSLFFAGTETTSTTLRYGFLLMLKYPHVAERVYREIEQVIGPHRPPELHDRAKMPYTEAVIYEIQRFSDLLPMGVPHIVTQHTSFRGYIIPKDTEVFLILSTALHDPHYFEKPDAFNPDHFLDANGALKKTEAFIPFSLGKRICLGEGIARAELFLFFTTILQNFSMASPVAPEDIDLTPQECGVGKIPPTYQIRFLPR
Description: CYP2B6-catalyzed bupropion hydroxylation, LC-MS/MS. The format is in vitro ADME. To be noted: human liver microsomes.
Description: After 3 min pre-incubation at 37 °C, the reaction mixtures were incubated with the addition of NADPH in a shaking water bath for 15 min at 37 °C. The reaction was stopped by adding 100 μL of ice-cold d9-1′-hydroxybufuralol (internal standard) in methanol. The mixtures were centrifuged at 13,000× g for 4 min at 4 °C. All incubations were performed in triplicate, and the average values were used for the subsequent calculations. […] Then, the reaction mixtures were incubated with the addition of NADPH and bupropion for 15 min at 37 °C. The control reaction was performed by the addition of acetonitrile instead of the test compounds. Hydroxybupropion concentrations were quantified using the LC-MS/MS method described above; the SRM transitions for hydroxybupropion and d9-1′-hydroxybufuralol were 256.1 > 238.0 and 287.2 > 187.0, respectively.
The IC50 values were calculated using SigmaPlot ver.

Data set [6] deals with T6, CYP2A6 (Homo sapiens, UniProt P11509).
T6 sequence (P11509 1-494): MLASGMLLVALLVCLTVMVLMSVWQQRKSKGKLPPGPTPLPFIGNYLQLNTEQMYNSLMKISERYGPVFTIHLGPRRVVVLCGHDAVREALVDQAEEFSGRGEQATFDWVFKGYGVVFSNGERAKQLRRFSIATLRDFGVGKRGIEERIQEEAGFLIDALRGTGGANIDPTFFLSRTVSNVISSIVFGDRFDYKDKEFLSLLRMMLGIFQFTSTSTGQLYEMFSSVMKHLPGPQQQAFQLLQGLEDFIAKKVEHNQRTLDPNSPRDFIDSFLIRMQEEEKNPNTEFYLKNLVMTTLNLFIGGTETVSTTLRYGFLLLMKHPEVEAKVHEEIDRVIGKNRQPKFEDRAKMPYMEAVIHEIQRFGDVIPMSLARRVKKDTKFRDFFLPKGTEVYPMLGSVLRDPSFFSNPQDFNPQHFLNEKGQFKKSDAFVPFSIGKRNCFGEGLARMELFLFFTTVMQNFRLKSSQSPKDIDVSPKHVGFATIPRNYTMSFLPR
Description: CYP2A6-catalyzed coumarin 7-hydroxylation, substrate cocktail, LC-MS/MS. To be noted: human liver microsomes.
Description: as §1, §2, §3

Data set [7] has as its target T7, CYP2C8 (Homo sapiens, UniProt P10632).
T7 sequence (P10632 1-490): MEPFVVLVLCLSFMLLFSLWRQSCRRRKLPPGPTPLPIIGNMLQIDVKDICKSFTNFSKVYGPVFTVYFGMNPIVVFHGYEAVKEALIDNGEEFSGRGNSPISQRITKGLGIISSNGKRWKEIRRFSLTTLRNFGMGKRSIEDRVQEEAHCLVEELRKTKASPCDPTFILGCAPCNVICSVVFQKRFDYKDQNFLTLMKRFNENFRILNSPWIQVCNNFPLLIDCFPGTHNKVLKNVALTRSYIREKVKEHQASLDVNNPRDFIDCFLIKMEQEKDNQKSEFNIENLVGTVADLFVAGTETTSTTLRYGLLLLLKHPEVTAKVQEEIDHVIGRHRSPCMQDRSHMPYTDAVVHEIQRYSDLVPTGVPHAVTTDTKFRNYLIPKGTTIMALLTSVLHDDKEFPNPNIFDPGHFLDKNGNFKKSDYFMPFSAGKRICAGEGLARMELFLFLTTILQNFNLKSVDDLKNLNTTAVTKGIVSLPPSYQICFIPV
Description: as §1, §2, §3

Data set [8] deals with T1, CYP3A4. To be noted: microsomes.
Description: as §1, §2, §4
For data set [9], the target named is T2, CYP2C9. To be noted: microsomes.
Description: as §1, §2, §3
Data set [10] has as its target T8, CYP2C19 (Homo sapiens, UniProt P33261).
Description: as §1, §2, §3
Data set [11] has as its system eight CYP enzymes (CYPs 1A2, 2A6, 2B6, 2C8, 2C9, 2C19, 2D6, and 3A4). Description: IC50 shift after 30-min pre-incubation with NADPH, panel of eight CYP enzymes. To be noted: human liver microsomes.
Description: as §1
After 3 min pre-incubation at 37 °C, the reaction mixtures were incubated with the addition of NADPH in a shaking water bath for 15 min at 37 °C. The reaction was stopped by adding 100 μL of ice-cold d9-1′-hydroxybufuralol (internal standard) in methanol. The mixtures were centrifuged at 13,000× g for 4 min at 4 °C. All incubations were performed in triplicate, and the average values were used for the subsequent calculations. […] Then, the reaction mixtures were incubated with the addition of NADPH and bupropion for 15 min at 37 °C. […]
Data set [12] concerns the target T8, CYP2C19. The data set can be described thus: CYP2C19-catalyzed [S]-mephenytoin 4′-hydroxylation, substrate cocktail, LC-MS/MS. To be noted: human liver microsomes.
Description: as §1, §2, §3
The target in data set [13] is T4, CYP2D6. Description: CYP2D6-catalyzed bufuralol 1′-hydroxylation, substrate cocktail, LC-MS/MS. To be noted: human liver microsomes.
Description: as §1, §2, §4
Data set [14] has as its target T7, CYP2C8. The data set can be described thus: CYP2C8-catalyzed amodiaquine N-deethylation, substrate cocktail, LC-MS/MS. To be noted: human liver microsomes.
Description: as §1, §2, §3
For data set [15], the target named is T1, CYP3A4. The data set can be described thus: CYP3A4-catalyzed midazolam 1′-hydroxylation, substrate cocktail, LC-MS/MS. To be noted: human liver microsomes.
Description: as §1, §2, §4
For data set [16], the target named is T2, CYP2C9. The data set can be described thus: CYP2C9-catalyzed diclofenac 4′-hydroxylation, substrate cocktail, LC-MS/MS. To be noted: human liver microsomes.
Description: as §1, §2, §3
Data set [17] addresses T3, CYP1A2. Description: CYP1A2-catalyzed phenacetin O-deethylation, substrate cocktail, LC-MS/MS. To be noted: human liver microsomes.
Description: as §1, §2, §3
Data set [18] has as its target T8, CYP2C19. To be noted: microsomes.
Description: as §1, §2, §3

T4 sequence (P10635 whole entry): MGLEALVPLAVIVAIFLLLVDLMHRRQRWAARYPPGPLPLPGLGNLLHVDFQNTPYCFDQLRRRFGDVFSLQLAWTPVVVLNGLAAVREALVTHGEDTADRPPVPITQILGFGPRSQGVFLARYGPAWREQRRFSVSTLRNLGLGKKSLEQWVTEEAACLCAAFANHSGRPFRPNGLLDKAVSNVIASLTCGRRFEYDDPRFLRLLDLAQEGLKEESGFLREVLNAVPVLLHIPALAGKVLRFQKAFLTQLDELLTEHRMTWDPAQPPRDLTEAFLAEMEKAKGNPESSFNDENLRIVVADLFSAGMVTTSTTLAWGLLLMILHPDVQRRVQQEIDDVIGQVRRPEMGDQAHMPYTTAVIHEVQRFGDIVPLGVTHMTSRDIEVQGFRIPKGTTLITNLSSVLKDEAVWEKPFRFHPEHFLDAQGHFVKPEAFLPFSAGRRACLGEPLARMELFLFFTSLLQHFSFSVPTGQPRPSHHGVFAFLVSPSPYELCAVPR
T8 sequence (P33261 whole entry): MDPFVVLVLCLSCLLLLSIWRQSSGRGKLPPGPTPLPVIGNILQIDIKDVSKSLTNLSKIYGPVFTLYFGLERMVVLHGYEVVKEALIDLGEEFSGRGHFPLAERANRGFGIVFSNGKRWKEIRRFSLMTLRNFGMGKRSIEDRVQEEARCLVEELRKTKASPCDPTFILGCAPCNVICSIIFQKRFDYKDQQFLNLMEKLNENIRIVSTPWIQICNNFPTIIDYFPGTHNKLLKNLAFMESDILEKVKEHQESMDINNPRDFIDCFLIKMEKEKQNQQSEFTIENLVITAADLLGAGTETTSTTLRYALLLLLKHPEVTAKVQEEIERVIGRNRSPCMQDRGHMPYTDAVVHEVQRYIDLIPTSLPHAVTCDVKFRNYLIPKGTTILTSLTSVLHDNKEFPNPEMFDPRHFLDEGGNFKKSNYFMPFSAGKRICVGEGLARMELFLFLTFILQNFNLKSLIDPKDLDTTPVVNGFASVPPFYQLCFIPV
T1 sequence (P08684 whole entry): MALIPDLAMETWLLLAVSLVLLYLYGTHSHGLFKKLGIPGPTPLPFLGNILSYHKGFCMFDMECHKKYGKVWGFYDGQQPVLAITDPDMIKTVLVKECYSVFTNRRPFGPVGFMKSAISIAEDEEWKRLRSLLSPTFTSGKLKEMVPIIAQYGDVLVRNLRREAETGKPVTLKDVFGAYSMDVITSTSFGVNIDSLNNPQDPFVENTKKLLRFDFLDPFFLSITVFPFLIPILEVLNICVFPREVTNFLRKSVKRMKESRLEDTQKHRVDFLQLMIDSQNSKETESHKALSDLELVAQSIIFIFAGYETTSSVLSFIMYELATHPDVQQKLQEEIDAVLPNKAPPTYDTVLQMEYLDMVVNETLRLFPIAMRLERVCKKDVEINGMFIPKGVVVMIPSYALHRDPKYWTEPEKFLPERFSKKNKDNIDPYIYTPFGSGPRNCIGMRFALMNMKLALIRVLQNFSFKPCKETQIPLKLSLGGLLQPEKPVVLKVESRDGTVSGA

As to `COc1cc([C@H]2OC[C@H]3[C@@H]2CO[C@@H]3c2ccc3c(c2)OCO3)cc(OC)c1OC` [aschantin], the “kinact/Ki against CYP3A4” value in data set [1] was 8.2e+07 M⁻¹ s⁻¹. Moreover, the “kinact, mechanism-based inhibition of CYP2C9” value in data set [2] is 0.044 min⁻¹. Besides, the Ki in data set [2] (read-out: Ki, mechanism-based inhibition of CYP2C9) is 3.7 µM.

Turning to `CC(C)=CCC/C(C)=C/COc1c2ccoc2cc2oc(=O)ccc12` [bergamottin], the “kinact/Ki against CYP3A4” value in data set [1] was 3.3e+07 M⁻¹ s⁻¹.

Take `CC[C@H]1OC(=O)[C@H](C)[C@@H](O[C@H]2C[C@@](C)(OC)[C@@H](O)[C@H](C)O2)[C@H](C)[C@@H](O[C@@H]2O[C@H](C)C[C@H](N(C)C)[C@H]2O)[C@](C)(OC)C[C@@H](C)C(=O)[C@H](C)[C@@H](O)[C@]1(C)O` [clarithromycin]: the “kinact/Ki against CYP3A4” value in data set [1] was 1.7e+07 to 2.17e+08 M⁻¹ s⁻¹.

As to `COc1cc([C@@H]2c3cc4c(cc3C[C@H]3COC(=O)[C@@H]32)OCO4)cc(OC)c1OC` [deoxypodophyllotoxin], the Ki in data set [2] (read-out: Ki, CYP2C9 activity) is 3.5 µM.

In the case of `COc1cc([C@H]2OC[C@H]3[C@@H]2CO[C@@H]3c2cc(OC)c(OC)c(OC)c2)cc(OC)c1OC` [dimethyllirioresinol], the “Inhibition of CYP1A2 activity at 100 μM” value in [3] was “without inhibition”. Also, the “Inhibition of CYP2D6 activity at 100 μM” value in data set [4] is listed as “without inhibition”. The “Inhibition of CYP2B6 activity at 100 μM” value in data set [5] was “without inhibition”. For the same molecule, the “Inhibition of CYP2A6 activity at 100 μM” value in [6] is given as “without inhibition”. Moreover, the half-inhibitory concentration (IC50) in data set [7] was 85 µM and 67.2 µM; in data set [10], 55.1 µM and 49.8 µM. For the same molecule, the “Inhibition of CYP3A4 activity at 100 μM” value in data set [8] was “without inhibition”. Further, in data set [9], the “Inhibition of CYP2C9 activity at 100 μM” value is “without inhibition”. Besides, in [11], the “IC50 value shift of eight CYP enzymes after 30-min pre-incubation” value is “did not cause the IC50 value shift”.

With `COc1ccc([C@@H]2OC[C@H]3[C@@H]2CO[C@@H]3c2cc(OC)c(OC)c(OC)c2)cc1OC` [epimagnolin A], the “Inhibition of CYP2C19 activity at 100 μM” value in data set [12] was “negligibly inhibited”. Moreover, the “Inhibition of CYP2D6 activity at 100 μM” value in data set [13] was “negligibly inhibited”. In addition, in data set [14], the “Inhibition of CYP2C8 activity at 100 μM” value was “negligibly inhibited”. The “Inhibition of CYP3A4 activity at 100 μM” value in data set [15] is on record as “negligibly inhibited”. Moreover, the “Inhibition of CYP2B6 activity at 100 μM” value in data set [5] was “negligibly inhibited”. Moreover, the “Inhibition of CYP2A6 activity at 100 μM” value in [6] is reported as “negligibly inhibited”. Also, the “Inhibition of CYP2C9 activity at 100 μM” value in data set [16] is on record as “negligibly inhibited”. Besides, the “Inhibition of CYP1A2 activity at 100 μM” value in data set [17] is reported as “negligibly inhibited”.

Consider `COc1ccc([C@H]2OC[C@H]3[C@@H]2CO[C@@H]3c2ccc(OC)c(OC)c2)cc1OC` [eudesmin], for which the “Inhibition of CYP1A2 activity at 100 μM” value in data set [3] is “negligibly inhibited”. Besides, the “Inhibition of CYP2C8 activity at 100 μM” value in data set [14] is on record as “negligibly inhibited”. The “Inhibition of CYP2C19 activity at 100 μM” value in data set [18] was “negligibly inhibited”. In addition, in data set [4], the “Inhibition of CYP2D6 activity at 100 μM” value is on record as “negligibly inhibited”. For the same molecule, in [5], the “Inhibition of CYP2B6 activity at 100 μM” value is reported as “negligibly inhibited”. Besides, in [6], the “Inhibition of CYP2A6 activity at 100 μM” value was “negligibly inhibited”. Also, the “Inhibition of CYP3A4 activity at 100 μM” value in [8] was “negligibly inhibited”. In [9], the “Inhibition of CYP2C9 activity at 100 μM” value was “negligibly inhibited”. For the same molecule, in data set [11], the “IC50 value shift of eight CYP enzymes after 30-min pre-incubation” value was “did not cause the IC50 value shift”.

As to `CNCCC(Oc1ccc(C(F)(F)F)cc1)c1ccccc1` (centres unmarked) [fluoxetine], in [1], the “kinact/Ki against CYP3A4” value was 5.33e+07 M⁻¹ s⁻¹.

In the case of `COc1ccc([C@H]2OC[C@H]3[C@@H]2CO[C@@H]3c2cc(OC)c(OC)c(OC)c2)cc1OC` [magnolin], in data set [12], the “Inhibition of CYP2C19 activity at 100 μM” value is on record as “negligibly inhibited”. The “Inhibition of CYP2D6 activity at 100 μM” value in [13] is on record as “negligibly inhibited”. Moreover, in data set [14], the “Inhibition of CYP2C8 activity at 100 μM” value is “negligibly inhibited”. Also, in data set [15], the “Inhibition of CYP3A4 activity at 100 μM” value is reported as “negligibly inhibited”. Further, the “Inhibition of CYP2B6 activity at 100 μM” value in [5] was “negligibly inhibited”. Besides, the “Inhibition of CYP2A6 activity at 100 μM” value in data set [6] was “negligibly inhibited”. The “Inhibition of CYP2C9 activity at 100 μM” value in data set [16] was “negligibly inhibited”. Besides, the “Inhibition of CYP1A2 activity at 100 μM” value in data set [17] was “negligibly inhibited”.

With `COc1cc([C@@H]2c3cc4c(cc3[C@H](O)[C@H]3COC(=O)[C@H]23)OCO4)cc(OC)c1OC` [podophyllotoxin], in [1], the “kinact/Ki against CYP3A4” value is 2.272e+08 M⁻¹ s⁻¹. The Ki in [2] (read-out: Ki, CYP2C9 activity) was 2 µM.

With `O=c1c2ccccc2nc2n1CCc1c-2[nH]c2ccccc12` [rutaecarpine], the “kinact/Ki against CYP3A4” value in data set [1] is 5.98e+07 M⁻¹ s⁻¹.
